Assay results from PubChem BioAssay (NCI).
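Assay format: 96-well plates, 48-hour exposure. The concentration for full growth arrest is given as TGI.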

Experiments:
Test in all cases: inhibition of tumour cell growth, NCI panel, 48 h
786-0 renal = tested on: 786-0 renal
A549 NSCLC = tested on: A549 NSCLC
ACHN renal = tested on: ACHN renal
DU-145 prostate = tested on: DU-145 prostate
HCC-2998 colon = tested on: HCC-2998 colon
HCT-15 colon = tested on: HCT-15 colon
HT29 colon = tested on: HT29 colon
KM12 colon = tested on: KM12 colon
M14 melanoma = tested on: M14 melanoma
MOLT-4 leukemia = tested on: MOLT-4 leukemia
NCI-H23 lung = tested on: NCI-H23 lung
NCI-H522 lung = tested on: NCI-H522 lung
OVCAR-4 ovarian = tested on: OVCAR-4 ovarian
OVCAR-8 ovarian = tested on: OVCAR-8 ovarian
SF-295 CNS = tested on: SF-295 CNS
SNB-75 CNS = tested on: SNB-75 CNS
UO-31 renal = tested on: UO-31 renal
A498 renal = tested on: A498 renal
HL-60(TB) leukemia = tested on: HL-60(TB) leukemia
MALME-3M melanoma = tested on: MALME-3M melanoma

Compound	TGI (786-0 renal)	TGI (A549 NSCLC)	TGI (ACHN renal)	TGI (DU-145 prostate)	TGI (HCC-2998 colon)	TGI (HCT-15 colon)	TGI (HT29 colon)	TGI (KM12 colon)	TGI (M14 melanoma)	TGI (MOLT-4 leukemia)	TGI (NCI-H23 lung)	TGI (NCI-H522 lung)	TGI (OVCAR-4 ovarian)	TGI (OVCAR-8 ovarian)	TGI (SF-295 CNS)	TGI (SNB-75 CNS)	TGI (UO-31 renal)	TGI (A498 renal)	TGI (HL-60(TB) leukemia)	TGI (MALME-3M melanoma)
O=C(O)C1CCCCC1C(=O)Nn1cnnc1 (stereo not drawn)	> 100 µM	> 100 µM	> 100 µM	> 100 µM	> 100 µM	> 100 µM	> 100 µM	> 100 µM	> 100 µM	> 100 µM	> 100 µM	> 100 µM	> 100 µM	> 100 µM	> 100 µM	> 100 µM	> 100 µM			
C/C=C1\C=C(OC)CN(CCc2c[nH]c3ccccc23)C1	> 100 µM	> 100 µM	> 100 µM		33.1 µM	> 100 µM	> 100 µM	> 100 µM	95.6 µM	> 100 µM	> 100 µM	> 100 µM	> 100 µM	> 100 µM	> 100 µM	> 100 µM	> 100 µM	> 100 µM	> 100 µM	56.8 µM
COc1cccc2c1CCc1c(-c3ccc(F)cc3)cc(-c3ccc4ccccc4n3)nc1-2	> 100 µM	> 100 µM	> 100 µM			> 100 µM	> 100 µM	> 100 µM	> 100 µM	> 100 µM	> 100 µM	> 100 µM	> 100 µM	> 100 µM	> 100 µM	> 100 µM	> 100 µM	> 100 µM		> 100 µM
Cc1n[nH]c(=O)n1/N=C/c1ccc(F)cc1	> 100 µM	> 100 µM	> 100 µM	> 100 µM	> 100 µM	> 100 µM		> 100 µM	> 100 µM	> 100 µM	> 100 µM	> 100 µM	> 100 µM	> 100 µM	> 100 µM	> 100 µM	> 100 µM	> 100 µM		
Cc1nc(C(N)=S)sc1C(=O)CC(=O)C(=O)Nc1ccccc1[N+](=O)[O-]	> 100 µM	> 100 µM	> 100 µM		> 100 µM	> 100 µM	> 100 µM	> 100 µM	> 100 µM	> 100 µM	> 100 µM	> 100 µM	> 100 µM	> 100 µM	> 100 µM	> 100 µM	> 100 µM	> 100 µM	> 100 µM	> 100 µM
c1ccc(N=C(Nc2ccccc2)N2CCCC2)cc1	> 100 µM	> 100 µM	> 100 µM	> 100 µM		> 100 µM	> 100 µM	> 100 µM	> 100 µM	> 100 µM	> 100 µM	> 100 µM	> 100 µM	> 100 µM	> 100 µM	> 100 µM	> 100 µM		> 100 µM	> 100 µM
N#Cc1c(=O)c2ccccc2n2c1[nH]c1ccccc12	> 100 µM	> 100 µM	> 100 µM	> 100 µM	> 100 µM	> 100 µM	> 100 µM	> 100 µM	> 100 µM	> 100 µM	> 100 µM		> 100 µM	> 100 µM	> 100 µM	> 100 µM	> 100 µM	> 100 µM	> 100 µM	
CCN(CC)c1ccc2cc(C(N)=S)c(=N)oc2c1	> 100 µM	> 100 µM	> 100 µM	> 100 µM	> 100 µM	> 100 µM	> 100 µM	> 100 µM	> 100 µM	> 100 µM		> 100 µM	> 100 µM	> 100 µM	> 100 µM	> 100 µM	> 100 µM		> 100 µM	> 100 µM
O=C1/C(=C/c2ccc(OC(=O)c3ccccc3)cc2)CCC/C1=C\c1ccc(OC(=O)c2ccccc2)cc1	> 100 µM	> 100 µM	> 100 µM	> 100 µM	> 100 µM	> 100 µM	> 100 µM	> 100 µM	> 100 µM	> 100 µM	> 100 µM	> 100 µM	> 100 µM	> 100 µM	> 100 µM	> 100 µM	> 100 µM		> 100 µM	
Nc1nc(N)c2cc(-c3ccccc3)cnc2n1	21.5 µM	28 µM	26.3 µM		> 100 µM	> 100 µM	21 µM	30.1 µM	57.7 µM	28.3 µM	25.9 µM	44.9 µM	35.2 µM	57.4 µM	33 µM	17.3 µM	25.7 µM	28.5 µM	28.4 µM	21.7 µM
Cc1ccc(/C(O)=C/c2nc3c(nc2NC24CC5CC(CC(C5)C2)C4)c(=O)oc2ccccc23)cc1	> 100 µM	> 100 µM	> 100 µM		> 100 µM	> 100 µM	> 100 µM	> 100 µM	> 100 µM	> 100 µM	> 100 µM	> 100 µM		> 100 µM		70.1 µM	> 100 µM		> 100 µM	> 100 µM
COC(=O)c1ccccc1C1CN=NC12Cc1ccccc1C2=O (stereo not drawn)	> 100 µM	> 100 µM	> 100 µM	> 100 µM	> 100 µM	> 100 µM	> 100 µM	> 100 µM	> 100 µM	> 100 µM	> 100 µM	> 100 µM	> 100 µM	> 100 µM	> 100 µM	> 100 µM	> 100 µM		> 100 µM	> 100 µM
Nc1c2ccccc2nc2ccc3c(=O)cc(-c4ccccc4)oc3c12	0.348 µM		2.39 µM	3.74 µM	1.9 µM	4.3 µM	1.86 µM	2.16 µM	2.67 µM		3.52 µM		1.1 µM	1.89 µM		3.58 µM	2.86 µM		3.07 µM	3.23 µM
CCOC(=O)N1c2c(ccn2C)-c2ccn(C)c2N1C(=O)OCC	23.1 µM	39.4 µM	29.6 µM		37.9 µM	26.5 µM	30.1 µM	57.3 µM	30.8 µM	40.4 µM		25 µM		27.9 µM	29.7 µM	33.7 µM	35.4 µM	> 100 µM	26.7 µM	37.1 µM
O=S(CC1(O)CCCCC1)c1ccccc1 (stereo not drawn)	> 100 µM	> 100 µM	> 100 µM	> 100 µM	> 100 µM	> 100 µM	> 100 µM	> 100 µM	> 100 µM	> 100 µM	> 100 µM	> 100 µM	> 100 µM	> 100 µM	> 100 µM	> 100 µM	> 100 µM		> 100 µM	> 100 µM
CC(NO)/C(=N/O)c1ccco1 (stereo not drawn)	> 10 µM	> 10 µM	> 10 µM	> 10 µM	> 10 µM	> 10 µM	> 10 µM	> 10 µM	> 10 µM	> 10 µM	> 10 µM	> 10 µM	> 10 µM	> 10 µM	> 10 µM		> 10 µM		> 10 µM	> 10 µM
Oc1c(Cl)c(Cl)c(O)c(CCNc2ccc3ncccc3c2)c1Cl	34.3 µM	47.3 µM	28 µM	60 µM	28 µM	30 µM	88.4 µM	15.9 µM	27.1 µM	> 100 µM	25.9 µM	4.29 µM	> 100 µM	50.6 µM	24.1 µM	33.4 µM	31.2 µM		> 100 µM	35.3 µM
N#CC(C#N)=C/C=C(\Sc1c(Cl)c(Cl)nc(Cl)c1Cl)c1ccc(Cl)cc1	27.5 µM	> 100 µM	37.8 µM	47.5 µM		30.1 µM	> 100 µM	51.5 µM	38.9 µM	> 100 µM	35.9 µM	56.5 µM	> 100 µM	> 100 µM	44.9 µM	44.9 µM	> 100 µM		> 100 µM	46.6 µM
COc1cccc(C2c3cc4c(cc3OC(N3CCOCC3)C2C)OCO4)c1OC (stereo not drawn)	52.7 µM	> 100 µM	70.9 µM	28.5 µM	22.8 µM	> 100 µM	15.8 µM	36.2 µM	29 µM	20 µM	> 100 µM	34.3 µM		> 100 µM	32.9 µM	37.2 µM	33.6 µM			
COc1cc(C2SCC(=O)N2c2ccc(-n3c(-c4ccccc4)nc4ccccc4c3=O)cc2)cc(OC)c1OC (stereo not drawn)	> 100 µM	> 100 µM	> 100 µM	> 100 µM	> 100 µM	> 100 µM	> 100 µM	> 100 µM		> 100 µM	> 100 µM	> 100 µM	> 100 µM	> 100 µM	> 100 µM		71.4 µM	> 100 µM	> 100 µM	
Cc1cc(C)nc(NS(=O)(=O)c2ccc(NNc3c4ccccc4nc4c(C(=O)Nc5ccc(S(N)(=O)=O)cc5)cccc34)cc2)n1	> 100 µM	> 100 µM	> 100 µM	> 100 µM	84.3 µM	> 100 µM	> 100 µM	> 100 µM	> 100 µM	> 100 µM	> 100 µM	85.8 µM	> 100 µM	> 100 µM	> 100 µM	33 µM	> 100 µM		> 100 µM	> 100 µM
COc1cc(/C=C2\N=C(c3ccccc3)N(c3nc4cc(C)c(C)cc4s3)C2=O)ccc1O	> 100 µM	> 100 µM	> 100 µM	> 100 µM	69.9 µM	> 100 µM	99.1 µM	> 100 µM	> 100 µM	> 100 µM			> 100 µM	> 100 µM	> 100 µM	> 100 µM	> 100 µM		43.9 µM	
Cc1cccc(C)c1NC(=O)C(=O)CC(=O)/C=C/c1ccccc1	> 100 µM	> 100 µM	> 100 µM		> 100 µM	> 100 µM	> 100 µM	> 100 µM	> 100 µM	> 100 µM	> 100 µM	> 100 µM	> 100 µM	> 100 µM	> 100 µM	> 100 µM	> 100 µM	> 100 µM	> 100 µM	> 100 µM
Cn1c(=O)n2n(c1=O)C(S(=O)(=O)c1ccccc1)C2 (stereo not drawn)	> 100 µM	> 100 µM	> 100 µM	> 100 µM	> 100 µM	> 100 µM	> 100 µM	> 100 µM	> 100 µM	> 100 µM	> 100 µM	> 100 µM	> 100 µM	> 100 µM	> 100 µM	> 100 µM	> 100 µM			> 100 µM
NC(=O)c1cc2ccc(O)cc2o/c1=N/NC(=O)c1ccccc1	> 100 µM	> 100 µM	> 100 µM		> 100 µM	> 100 µM	> 100 µM	> 100 µM	> 100 µM	> 100 µM	> 100 µM	> 100 µM	> 100 µM	> 100 µM	> 100 µM	> 100 µM	> 100 µM	> 100 µM	> 100 µM	> 100 µM
COc1cccc(/C=C2\CCCc3ccccc3C2=O)c1	27.4 µM	> 100 µM	> 100 µM	60 µM		26 µM	52.3 µM	38.8 µM	25.6 µM	> 100 µM	32.6 µM	40.3 µM	28.5 µM	51.5 µM	30.7 µM	> 100 µM	29.7 µM		35 µM	43 µM
